# Source: US7888331B2, “Ganglioside compositions and methods of use” (Seneb Biosciences, Inc., priority 2003, dated 2011)
# Test system: mouse cortical cells
# Assay: Protection of cortical cells from apoptosis (hydrogen peroxide, MTT)
# Assay type: cell-based
# Details: approx. 0.1 μM, 50 μM hydrogen peroxide
# Description: To induce apoptosis, mouse cortical cells were cultured and treated with 50 μM hydrogen peroxide for three hours prior to being treated with the ganglioside analogue. The cells were also treated with the hydrogen peroxide during treatment with the ganglioside analogue and post-treatment for 48 h. Cell death was assayed using the MTT assay.
substance,measurement,value
LIGA-20,protection of the cells from apoptosis,approximately 20%
